In test [1] the target is T1, human Adenosine A1 receptor (Homo sapiens, UniProt P30542).
T1 construct: host or cells: CHO-K1
T1 sequence (P30542 1-326): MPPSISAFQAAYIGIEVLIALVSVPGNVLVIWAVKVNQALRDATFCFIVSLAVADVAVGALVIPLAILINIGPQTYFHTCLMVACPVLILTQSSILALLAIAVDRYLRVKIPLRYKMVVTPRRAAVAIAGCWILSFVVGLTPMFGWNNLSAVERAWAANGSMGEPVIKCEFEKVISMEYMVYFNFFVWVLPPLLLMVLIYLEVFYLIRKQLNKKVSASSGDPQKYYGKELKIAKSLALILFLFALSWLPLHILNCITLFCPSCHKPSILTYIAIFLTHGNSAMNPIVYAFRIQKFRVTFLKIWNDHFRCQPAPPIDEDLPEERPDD
Put plainly: GTPγS scintillation proximity assay, agonist testing. In kind it is biochemical. The settings on record: agonist activity; membrane extracts of CHO-K1 cells expressing recombinant human A1; read-out: A1AR EC50. An outline of the steps: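 Agonist-stimulated [35S]GTPγS binding to membranes of CHO-K1 cells expressing recombinant human A1 receptor, in 20 mM HEPES pH 7.4, 100 mM NaCl, 10 μg/mL saponin, with receptor-optimized MgCl2 and GDP. GTPγ[35S] 0.1 nM final with WGA SPA beads; 1 h at room temperature, then scintillation counting.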
A general note: Scintillation proximity formats need no separation of bound from free tracer.

A further test addresses T2, human A2B (Homo sapiens, UniProt P29275).
T2 construct: expressed in transfected cells; host or cells: HEK293
T2 sequence (P29275 1-332): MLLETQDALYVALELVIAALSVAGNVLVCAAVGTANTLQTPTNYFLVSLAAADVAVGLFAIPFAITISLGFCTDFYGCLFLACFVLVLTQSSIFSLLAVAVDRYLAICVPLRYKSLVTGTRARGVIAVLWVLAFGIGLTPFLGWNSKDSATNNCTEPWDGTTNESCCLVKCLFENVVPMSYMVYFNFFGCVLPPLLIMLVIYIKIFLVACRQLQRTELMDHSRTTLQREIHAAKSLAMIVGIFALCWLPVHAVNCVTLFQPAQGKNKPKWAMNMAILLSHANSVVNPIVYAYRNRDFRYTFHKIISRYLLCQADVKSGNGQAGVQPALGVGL
Put plainly: cAMP HTRF assay for Gs coupled receptor, agonist test. In kind it is cell-based. As to conditions: agonist activity; HEK293 cells expressing recombinant human A2B; read-out: A2BAR EC50. An outline of the steps: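 Recombinant cells were incubated 30 min at room temperature with increasing agonist concentrations. Lysis buffer with cAMP-d2 and anti-cAMP cryptate was added, with 1 h at room temperature before the HTRF fluorescence ratio was read. Reference compounds were run in parallel.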
Background: Time-resolved FRET reads energy transfer from a long-lived donor to a nearby acceptor.

pEC50: −log10 of the molar value.

In the case of `Cn1ccc2c(CSc3nc(N)c(C#N)c(-c4ccc(OC5COC5)cc4)c3C#N)cccc21` [Compound 302], the results for the negative logarithm of the EC50 (pEC50) (in test [1]; at human A2B) were 7.19 and 6.05, respectively.
The like results for `COCCOc1ccc(-c2c(C#N)c(SCc3cccnc3)nc(C3CC3)c2C#N)cc1` [Compound 46] were, in that order, 6.96 and under 5.00.
Take `CNc1nc(SCc2cccnc2)c(C#N)c(-c2ccc(OC(F)(F)CO)cc2)c1C#N` [Compound 260]: the pEC50 was 8.47 in test [1] and 7.47 at human A2B.
For `N#Cc1c(SCc2cccnn2)nc(N2CCC2)c(C#N)c1-c1ccc(OCCO)cc1` [Compound 20], in that order: 7.85 and 8.52.
For `COCCOc1ccc(-c2c(C#N)c(N)nc(SCc3cccc4[nH]cnc34)c2C#N)cc1` [Compound 215], in that order: under 5.00 and under 5.00.
For `N#Cc1c(N)nc(SCC2COC2)c(C#N)c1-c1ccc(OC(F)(F)CO)cc1` [Compound 311, 2-Amino-4-[4-(1,1-difluoro-2-hydroxy-ethoxy)phenyl]-6-(oxetan-3-ylmethylsulfanyl)pyridine-3,5-dicarbonitrile], in that order: 8.14 and under 5.00.
`COCCOc1ccc(-c2c(C#N)c(N)nc(SCc3ccc4c(c3)OCC4)c2C#N)cc1` [Compound 16]: the negative-log EC50 (pEC50) in test [1] was 5.12; on human A2B, under 5.00.
The like results for `CNC(=O)CSc1nc(N2CCCC2)c(C#N)c(-c2ccc(OCCOC)cc2)c1C#N` [Compound 79] were, in that order, 5.75 and 7.35.
For `N#Cc1c(SCC2COC2)nc(N2CCC2)c(C#N)c1-c1ccc(OCCO)cc1` [Compound 63, 2-(Azetidin-1-yl)-4-[4-(2-hydroxyethoxy)phenyl]-6-(oxetan-3-ylmethylsulfanyl)pyridine-3,5-dicarbonitrile], in that order: 7.04 and 5.53.
The like results for `N#Cc1c(N)nc(SCC2(O)COC2)c(C#N)c1-c1ccc(OC2COC2)cc1` [Compound 315] were, in that order, 7.09 and under 5.00.
In the case of `N#Cc1c(SCc2cccnc2)nc(N2CCCC2)c(C#N)c1-c1ccc(OCCOC(F)F)cc1` [Compound 257], the negative-log EC50 (pEC50) (in test [1]; at human A2B) was under 5.00 throughout.
Regarding `COCCOc1ccc(-c2c(C#N)c(N)nc(S[C@H](C)c3ccccn3)c2C#N)cc1` [Compound 243], the pEC50 in test [1] was under 5.00; at human A2B, 5.19.
The like results for `N#Cc1c(SCc2cccnc2)nc(N2CCC2)c(C#N)c1-c1ccc(OCCO)cc1` [Compound 116] were, in that order, 8.54 and 8.41.
The like results for `COCCOc1ccc(-c2c(C#N)c(N)nc(SCCNC(C)=O)c2C#N)cc1` [Compound 120] were, in that order, 6.00 and under 5.00.
The like results for `COCCOc1ccc(-c2c(C#N)c(N)nc(SCc3ccncn3)c2C#N)cc1` [Compound 232] were, in that order, 8.82 and under 5.00.
Take `N#Cc1c(N)nc(SC[C@H]2CCOC2)c(C#N)c1-c1ccc(OC2COC2)cc1` [Compound 225]: the pEC50 in test [1] is 9.12; at human A2B, 6.93.
Turning to `COCCOc1ccc(-c2c(C#N)c(N)nc(SCC3COC3)c2C#N)cc1` [Compound 123], the pEC50 in test [1] was 7.14; on human A2B, under 5.00.
The like results for `N#Cc1c(N)nc(SCCOC(F)F)c(C#N)c1-c1ccc(OCCO)cc1` [Compound 93] were, in that order, 6.96 and 7.19.
The like results for `CC(O)COc1ccc(-c2c(C#N)c(SCc3cccnc3)nc(N3CCCC3)c2C#N)cc1` (stereo not drawn) [Compound 52] were, in that order, 7.03 and 8.28.
For `COCCOc1ccc(-c2c(C#N)c(SCc3cccnn3)nc(N3CCC3)c2C#N)cc1` [Compound 12], in that order: 6.32 and under 5.00.
For the compound `N#Cc1c(N)nc(OC[C@H]2CCOC2)c(C#N)c1-c1ccc(OC2COC2)cc1` [Compound 290], the pEC50 in test [1] was 6.58; on human A2B, under 5.00.
For `N#Cc1c(OCC2COC2)nc(N2CCC2)c(C#N)c1-c1ccc(OC2COC2)cc1` [Compound 287, 2-(azetidin-1-yl)-6-(oxetan-3-ylmethoxy)-4-(4-(oxetan-3-yloxy)phenyl)pyridine-3,5-dicarbonitrile], in that order: 6.09 and under 5.00.
The like results for `COCCOc1ccc(-c2c(C#N)c(N)nc(SCc3ccc4ccoc4c3)c2C#N)cc1` [Compound 213] were, in that order, under 5.00 and under 5.00.
The like results for `N#Cc1c(N)nc(SCc2cccnn2)c(C#N)c1-c1ccc(OCCOC(F)F)cc1` [Compound 237] were, in that order, 8.79 and 5.27.
For `N#Cc1c(N)nc(SCC2CCOC2)c(C#N)c1-c1ccc(OCCO)cc1` (stereo not drawn) [Compound 28], the negative logarithm of the EC50 (pEC50) in test [1] is 7.28; on human A2B, under 5.00.
The like results for `COCCOc1ccc(-c2c(C#N)c(C)nc(SCCC(F)(F)F)c2C#N)cc1` [Compound 47] were, in that order, under 5.00 and 7.44.
For `N#Cc1c(N)nc(SCC2CCCOC2)c(C#N)c1-c1ccc(OC2COC2)cc1` (stereo not drawn) [Compound 9], in that order: 6.05 and 5.60.
Take `N#Cc1c(N)nc(SCCC(F)(F)F)c(C#N)c1-c1ccc(OCCO)cc1` [Compound 113]: the values for the pEC50 (in test [1]; on human A2B) were 6.50 and at most 5.00, respectively.
For `COCCOc1ccc(-c2c(C#N)c(SCc3ccccn3)nc(N3CC(F)C3)c2C#N)cc1` [Compound 250], in that order: 7.48 and under 5.00.
The like results for `N#Cc1c(N)nc(SCC2COC2)c(C#N)c1-c1ccc(OC2COC2)cc1` [Compound 25] were, in that order, 8.96 and under 5.00.
The like results for `COCCOc1ccc(-c2c(C#N)c(N)nc(SCc3cncnc3)c2C#N)cc1` [Compound 198] were, in that order, 7.10 and under 5.00.
With `N#Cc1c(N)nc(SCC2OCCO2)c(C#N)c1-c1ccc(OC2COC2)cc1` [Compound 304], the pEC50 in test [1] is 6.78; at human A2B it was under 5.00.
As for `N#Cc1c(N)nc(SCc2nc3cc(Cl)ccc3s2)c(C#N)c1-c1ccc(OCCO)cc1` [Compound 208], the pEC50 in test [1] was 6.30; on human A2B, 7.01.
For the compound `COCC(F)(F)Oc1ccc(-c2c(C#N)c(N)nc(SCC3COC3)c2C#N)cc1` [Compound 310], the pEC50 (in test [1]; on human A2B) was under 5.00 throughout.
Take `COCCOc1ccc(-c2c(C#N)c(N)nc(SCc3cccc4[nH]ncc34)c2C#N)cc1` [Compound 214]: the negative logarithm of the EC50 (pEC50) (in test [1]; on human A2B) was under 5.00 each time.
For `N#Cc1c(SCc2cccnc2)nc(C2CC2)c(C#N)c1-c1ccc(OCCO)cc1` [Compound 45, 2-Cyclopropyl-4-[4-(2-hydroxyethoxy)phenyl]-6-(3-pyridylmethylsulfanyl)-pyridine-3,5-dicarbonitrile], the pEC50 in test [1] is 7.46; on human A2B, 8.09.
The like results for `Cc1nc(SCCC(F)(F)F)c(C#N)c(-c2ccc(OCCO)cc2)c1C#N` [Compound 48] were, in that order, under 5.00 and 7.37.
The like results for `N#Cc1c(N)nc(SCc2ccncc2)c(C#N)c1-c1ccc(OCCO)cc1` [Compound 174] were, in that order, 8.09 and 9.30.
For `COCCSc1nc(N)c(C#N)c(-c2ccc(OCCO)cc2)c1C#N` [Compound 151], in that order: 7.21 and 7.55.
As to `N#Cc1c(N)nc(SCc2cccnc2)c(C#N)c1-c1ccc(OCC(O)C(F)(F)F)cc1` (stereo not drawn) [Compound 65], the values for the pEC50 (in test [1]; on human A2B) were 6.51 and 8.72, respectively.
With `N#Cc1c(N)nc(SCC2CCOC2)c(C#N)c1-c1ccc(OC2CCOC2)cc1` (stereo not drawn) [Compound 218], the negative-log EC50 (pEC50) in test [1] is 6.45; on human A2B, under 5.00.
The like results for `COCCOc1ccc(-c2c(C#N)c(N)nc(SCc3cccc4[nH]ccc34)c2C#N)cc1` [Compound 67] were, in that order, 7.75 and under 5.00.
The like results for `N#Cc1c(N)nc(SCC2COC2)c(C#N)c1-c1ccc(OC2CCOC2)cc1` (stereo not drawn) [Compound 219] were, in that order, 6.81 and under 5.00.
The like results for `COCCOc1ccc(-c2c(C#N)c(SCc3ncccn3)nc(N3CC(F)C3)c2C#N)cc1` [Compound 251] were, in that order, under 5.00 and under 5.00.
In the case of `N#Cc1c(N)nc(SCC2COC2)c(C#N)c1-c1ccc(O[C@H]2C[C@H](O)C2)cc1` [Compound 303], the negative logarithm of the EC50 (pEC50) in test [1] was 7.11; on human A2B, under 5.00.

What is called pEC50 is −log10 of the EC50, conventionally taken in molar units.

Values taken from patent US20250170112A1, “ADENOSINE LIGANDS FOR THE TREATMENT OF NEUROLOGICAL DISORDERS” (Lucy Therapeutics, Inc., priority 2022, published 2025).
